Results as given in patent publication US20040006002A1, “Methods and compositions for treating flaviviruses and pestiviruses using 4'-modified nucleoside” (priority 2001, published 2004).

Tests used:
[1] = Cytotoxicity assay (sulforhodamine B, 4 days); format: cell-based; settings: bovine; MDBK cells, 4 days incubation, concentration reducing cell number by 50%; preliminary results
Experimental: (§1) The test compounds were dissolved in DMSO at an initial concentration of 200 μM and then were serially diluted in culture medium.
(§2) Cells are seeded at a rate of between 5×10^3 and 5×10^4/well into 96-well plates in growth medium overnight at 37° C. in a humidified CO2 (5%) atmosphere. New growth medium containing serial dilutions of the drugs is then added. After incubation for 4 days, cultures are fixed in 50% TCA and stained with sulforhodamineB. The optical density was read at 550 nm. The cytotoxic concentration was expressed as the concentration required to reduce the cell number by 50% (CC50).

[2] = Cell Protection Assay (CPA), uninfected cells (cytotoxicity); format: cell-based; settings: bovine, uninfected MDBK cells, Table 2, Cell Protection Assay
Experimental: as §2
(§3) The assay is performed essentially as described by Baginski, S. G.; Pevear, D. C.; Seipel, M.; Sun, S. C. C.; Benetatos, C. A.; Chunduru, S. K.; Rice, C. M. and M. S. Collett “Mechanism of action of a pestivirus antiviral compound” PNAS USA 2000, 97(14), 7981-7986. MDBK cells (ATCC) are seeded onto 96-well culture plates (4,000 cells per well) 24 hours before use. After infection with BVDV (strain NADL, ATCC) at a multiplicity of infection (MOI) of 0.02 plaque forming units (PFU) per cell, serial dilutions of test compounds are added to both infected and uninfected cells in a final concentration of 0.5% DMSO in growth medium. Each dilution is tested in quadruplicate. Cell densities and virus inocula are adjusted to ensure continuous cell growth throughout the experiment and to achieve more than 90% virus-induced cell destruction in the untreated controls after four days post-infection. After four days, plates are fixed with 50% TCA and stained with sulforhodamine B. The optical density of the wells is read in a microplate reader at 550 nm. The 50% effective concentration (EC50) values are defined as the compound concentration that achieved 50% reduction of cytopathic effect of the virus.

[3] = tested on: BVDV (strain NADL); assay: Cell Protection Assay (CPA), BVDV-infected MDBK cells; format: cell-based, Bovine Viral Diarrhea virus; settings: MOI 0.02, MDBK cells, four days post-infection, 50% reduction of cytopathic effect
Experimental: as §1, §3

[4] = tested on: MDBK; assay: Cytotoxicity assay (sulforhodamine B, 4 days); format: cell-based; settings: MDBK cells, 4 days incubation, concentration reducing cell number by 50%; preliminary results
Experimental: as §1, §2

[5] = tested on: MDBK cells; assay: Cell Protection Assay (CPA), uninfected cells (cytotoxicity); format: cell-based; settings: Table 2, Cell Protection Assay
Experimental: as §2, §3

[6] = Bovine viral diarrhea virus isolates and strains, 96 h

C[C@]1(CO)O[C@@H](n2ccc(=S)[nH]c2=O)[C@H](O)[C@@H]1O [β-D-4'-CH3-ribo-4-thioU, 1-(4-C-methyl-β-D-ribofuranosyl)4-thio-uracil]
CC50 at 4 days [1]: > 250 µM
CC50 at 4 days [2]: > 250 µM
EC50 [3, 6]: > 250 µM
melting point: 65 to 70 °C (dec.)

C[C@]1(CO)O[C@@H](n2cc(F)c(=O)[nH]c2=O)[C@H](O)[C@@H]1O [β-D-4'-CH3-ribo-5-fluoroU]
CC50 [4]: > 167 µM
CC50 [5]: > 167 µM
EC50 [3]: > 167 µM

C[C@]1(CO)O[C@@H](n2cnc3c(N)ncnc32)[C@H](O)[C@@H]1O [β-D-4'-CH3-riboA, 9-(4-C-methyl-β-D-ribofuranosyl) adenine]
CC50 at 4 days [1]: > 250 µM
CC50 at 4 days [2]: > 250 µM
EC50 [3, 6]: > 250 µM
melting point: 96 to 97 °C (dec.)

C[C@]1(CO)O[C@@H](n2ccc(N)nc2=O)[C@H](O)[C@@H]1O [β-D-4'-CH3-riboC, 1-(4-C-methyl-β-D-ribofuranosyl)cytosine]
CC50 at 4 days [1]: > 250 µM
CC50 at 4 days [2]: > 250 µM
EC50 [3, 6]: 9 µM

C[C@]1(CO)O[C@@H](n2cnc3c(=O)[nH]c(N)nc32)[C@H](O)[C@@H]1O [β-D-4'-CH3-riboG, 9-(4-C-methyl-β-D-ribofuranosyl) guanine]
CC50 at 4 days [1]: > 250 µM
CC50 at 4 days [2]: > 250 µM
EC50 [3, 6]: 43 µM

Cc1cn([C@@H]2O[C@](C)(CO)[C@@H](O)[C@H]2O)c(=O)[nH]c1=O [β-D-4'-CH3-riboT, 1-(4-C-methyl-β-D-ribofuranosyl)thymine]
CC50 at 4 days [1]: > 250 µM
CC50 at 4 days [2]: > 250 µM
EC50 [3, 6]: > 250 µM
melting point: 258 to 260 °C (dec.)
